# Data: ChEMBL document CHEMBL1125940 (Bioorg Med Chem Lett, 1991)
# Positions of bridges follow the written chain, without caps; N, C: chain ends. Non-standard residues stand in square brackets, D forms with d. Residues, ends and D or L forms follow the SMILES beside them. Nle = CCCC[C@H](N)C(=O)O
# Molecular target: T1, Endothelin-1 receptor (Rattus norvegicus, UniProt P26684)
# T1 sequence (P26684 whole entry): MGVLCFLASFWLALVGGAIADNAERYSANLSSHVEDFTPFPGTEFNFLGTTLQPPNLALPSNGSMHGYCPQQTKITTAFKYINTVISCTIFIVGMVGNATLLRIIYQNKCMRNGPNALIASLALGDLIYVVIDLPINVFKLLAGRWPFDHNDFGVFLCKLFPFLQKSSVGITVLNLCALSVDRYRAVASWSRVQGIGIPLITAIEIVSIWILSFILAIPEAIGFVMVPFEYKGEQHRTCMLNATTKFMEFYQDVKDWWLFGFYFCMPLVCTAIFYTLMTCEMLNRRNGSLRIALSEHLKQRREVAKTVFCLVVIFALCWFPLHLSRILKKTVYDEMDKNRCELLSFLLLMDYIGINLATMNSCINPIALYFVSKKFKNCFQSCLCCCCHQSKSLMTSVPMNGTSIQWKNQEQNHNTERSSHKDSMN
# Test: Binding affinity towards Endothelin A receptor in A10 rat thoracic aorta smooth muscle cells using [125I]ET1 as radioligand
row,Compound,Kd [µM]
1,"CC[C@H](C)[C@H](NC(=O)[C@H](CC(=O)O)NC(=O)[C@H](CC(C)C)NC(=O)[C@H](Cc1cnc[nH]1)NC(=O)[C@@H]1CSSC[C@H](N)C(=O)N[C@@H](CO)C(=O)N[C@H]2CSSC[C@H](NC(=O)[C@H](CCC(=O)O)NC(=O)[C@H](CCCCN)NC(=O)[C@H](CC(=O)O)NC(=O)[C@H](C)NC(=O)[C@H](C)NC(=O)[C@H](C)NC(=O)[C@H](C)NC2=O)C(=O)N[C@@H](C(C)C)C(=O)N[C@@H](Cc2ccc(O)cc2)C(=O)N[C@@H](Cc2ccccc2)C(=O)N1)C(=O)N[C@H](C(=O)N[C@@H](Cc1c[nH]c2ccccc12)C(=O)O)[C@@H](C)CC (H-CSCAAAADKECVYFCHLDIIW-OH; disulfide 1-15, 3-11)",0.13
2,"CC[C@H](C)[C@H](NC(=O)[C@H](CC(=O)O)NC(=O)[C@H](CC(C)C)NC(=O)[C@H](Cc1c[nH]cn1)NC(=O)[C@@H]1CSSC[C@H](N)C(=O)N[C@@H](CO)C(=O)N[C@H]2CSSC[C@H](NC(=O)[C@H](CCC(=O)O)NC(=O)[C@H](CCCCN)NC(=O)[C@H](C)NC(=O)[C@H](CCSC)NC(=O)[C@H](CC(C)C)NC(=O)[C@H](CO)NC(=O)[C@H](CO)NC2=O)C(=O)N[C@@H](C(C)C)C(=O)N[C@@H](Cc2ccc(O)cc2)C(=O)N[C@@H](Cc2ccccc2)C(=O)N1)C(=O)N[C@H](C(=O)N[C@@H](Cc1c[nH]c2ccccc12)C(=O)O)[C@@H](C)CC (H-CSCSSLMAKECVYFCHLDIIW-OH; disulfide 1-15, 3-11)",3.07
3,"CC[C@H](C)[C@H](NC(=O)[C@H](CC(=O)O)NC(=O)[C@H](CC(C)C)NC(=O)[C@H](Cc1cnc[nH]1)NC(=O)[C@@H]1CSSC[C@H](N)C(=O)N[C@@H](CO)C(=O)N[C@H]2CSSC[C@H](NC(=O)[C@H](C)NC(=O)[C@H](CCCCN)NC(=O)[C@H](CC(=O)O)NC(=O)[C@H](CCSC)NC(=O)[C@H](CC(C)C)NC(=O)[C@H](CO)NC(=O)[C@H](CO)NC2=O)C(=O)N[C@@H](C(C)C)C(=O)N[C@@H](Cc2ccc(O)cc2)C(=O)N[C@@H](Cc2ccccc2)C(=O)N1)C(=O)N[C@H](C(=O)N[C@@H](Cc1c[nH]c2ccccc12)C(=O)O)[C@@H](C)CC (H-CSCSSLMDKACVYFCHLDIIW-OH; disulfide 1-15, 3-11)",0.188
4,"CC[C@H](C)[C@H](NC(=O)[C@H](CC(=O)O)NC(=O)[C@H](CC(C)C)NC(=O)[C@H](Cc1c[nH]cn1)NC(=O)[C@@H]1CSSC[C@H](N)C(=O)N[C@@H](CO)C(=O)N[C@H]2CSSC[C@H](NC(=O)[C@H](CCC(=O)O)NC(=O)[C@H](CCCCN)NC(=O)[C@H](CC(=O)O)NC(=O)[C@H](CCSC)NC(=O)[C@H](CC(C)C)NC(=O)[C@H](CO)NC(=O)[C@H](CO)NC2=O)C(=O)N[C@@H](C(C)C)C(=O)N[C@@H](Cc2ccc(O)cc2)C(=O)N[C@@H](C)C(=O)N1)C(=O)N[C@H](C(=O)N[C@@H](Cc1c[nH]c2ccccc12)C(=O)O)[C@@H](C)CC (H-CSCSSLMDKECVYACHLDIIW-OH; disulfide 1-15, 3-11)",0.646
5,"CSCC[C@@H]1NC(=O)[C@H](CC(C)C)NC(=O)[C@H](CO)NC(=O)[C@H](CO)NC(=O)[C@@H]2CSSC[C@H](NC(=O)[C@H](CCC(=O)O)NC(=O)[C@H](CCCCN)NC(=O)[C@H](CC(=O)O)NC1=O)C(=O)N[C@@H](C(C)C)C(=O)N[C@@H](Cc1ccc(O)cc1)C(=O)N[C@@H](Cc1ccccc1)C(=O)N[C@H](C(=O)N[C@@H](Cc1cnc[nH]1)C(=O)N[C@@H](CC(C)C)C(=O)N[C@@H](CC(=O)O)C(=O)N[C@@H](C)C(=O)N[C@@H](C)C(=O)N[C@@H](Cc1c[nH]c3ccccc13)C(=O)O)CSSC[C@H](N)C(=O)N[C@@H](CO)C(=O)N2 (H-CSCSSLMDKECVYFCHLDAAW-OH; disulfide 1-15, 3-11)",0.929
6,"CC[C@H](C)[C@H](NC(=O)[C@H](CC(=O)O)NC(=O)[C@H](CC(C)C)NC(=O)[C@H](Cc1cnc[nH]1)NC(=O)[C@@H]1CSSC[C@H](N)C(=O)N[C@@H](CO)C(=O)N[C@H]2CSSC[C@H](NC(=O)[C@H](CCC(=O)O)NC(=O)[C@H](CCCCN)NC(=O)[C@H](CC(=O)O)NC(=O)[C@H](CCSC)NC(=O)[C@H](CC(C)C)NC(=O)[C@H](CO)NC(=O)[C@H](CO)NC2=O)C(=O)N[C@@H](C(C)C)C(=O)N[C@@H](Cc2ccc(O)cc2)C(=O)N[C@@H](Cc2ccccc2)C(=O)N1)C(=O)N[C@@H](C)C(=O)N[C@@H](Cc1c[nH]c2ccccc12)C(=O)O (H-CSCSSLMDKECVYFCHLDIAW-OH; disulfide 1-15, 3-11)",0.00211
7,"CC[C@H](C)[C@H](NC(=O)[C@H](CC(=O)O)NC(=O)[C@H](CC(C)C)NC(=O)[C@H](Cc1c[nH]cn1)NC(=O)[C@@H]1CSSC[C@H](N)C(=O)N[C@@H](CO)C(=O)N[C@H]2CSSC[C@H](NC(=O)[C@H](CCC(=O)O)NC(=O)[C@H](CCCCN)NC(=O)[C@H](CC(=O)O)NC(=O)[C@H](CCSC)NC(=O)[C@H](CC(C)C)NC(=O)[C@H](CO)NC(=O)[C@H](CO)NC2=O)C(=O)N[C@@H](C(C)C)C(=O)N[C@@H](Cc2ccc(O)cc2)C(=O)N[C@@H](Cc2ccccc2)C(=O)N1)C(=O)N[C@H](C(=O)N[C@@H](C)C(=O)O)[C@@H](C)CC (H-CSCSSLMDKECVYFCHLDIIA-OH; disulfide 1-15, 3-11) [listing 1 of 2 here]",> 20

# Organism: Oryctolagus cuniculus
# Test: Effective concentration required for stimulation of vascular contraction tested in vitro using carotid arteries of New Zealand white rabbits
# Format: functional
row,Compound,EC50 [µM]
1,"CC[C@H](C)[C@H](NC(=O)[C@H](CC(=O)O)NC(=O)[C@H](CC(C)C)NC(=O)[C@H](Cc1c[nH]cn1)NC(=O)[C@@H]1CSSC[C@H](N)C(=O)N[C@@H](C)C(=O)N[C@H]2CSSC[C@H](NC(=O)[C@H](CCC(=O)O)NC(=O)[C@H](CCCCN)NC(=O)[C@H](CC(=O)O)NC(=O)[C@H](CCSC)NC(=O)[C@H](CC(C)C)NC(=O)[C@H](CO)NC(=O)[C@H](CO)NC2=O)C(=O)N[C@@H](C(C)C)C(=O)N[C@@H](Cc2ccc(O)cc2)C(=O)N[C@@H](Cc2ccccc2)C(=O)N1)C(=O)N[C@H](C(=O)N[C@@H](Cc1c[nH]c2ccccc12)C(=O)O)[C@@H](C)CC (H-CACSSLMDKECVYFCHLDIIW-OH; disulfide 1-15, 3-11)",0.038
2,CCCC[C@@H]1NC(=O)[C@H](CC(C)C)NC(=O)[C@H](CO)NC(=O)[C@H](CO)NC(=O)[C@H](C)NC(=O)[C@H](CO)NC(=O)[C@@H](N)CSSC[C@@H](C(=O)N[C@@H](Cc2c[nH]cn2)C(=O)N[C@@H](CC(C)C)C(=O)N[C@@H](CC(=O)O)C(=O)N[C@H](C(=O)N[C@H](C(=O)N[C@@H](Cc2c[nH]c3ccccc23)C(=O)O)[C@@H](C)CC)[C@@H](C)CC)NC(=O)[C@H](Cc2ccccc2)NC(=O)[C@H](Cc2ccc(O)cc2)NC(=O)[C@H](C(C)C)NC(=O)[C@H](C)NC(=O)[C@H](CCC(=O)O)NC(=O)[C@H](CCCCN)NC(=O)[C@H](CC(=O)O)NC1=O (H-CSASSL[Nle]DKEAVYFCHLDIIW-OH; disulfide 1-15),0.0033

# Organism: Oryctolagus cuniculus
# Test: Percent of endothelin-1 induced contraction of carotid arteries isolated from New Zealand white rabbits, tested at 1 uM concentration of compound
# Format: functional
row,Compound,Contraction [%]
1,"CC[C@H](C)[C@H](NC(=O)[C@H](C)NC(=O)[C@H](CC(C)C)NC(=O)[C@H](Cc1c[nH]cn1)NC(=O)[C@@H]1CSSC[C@H](N)C(=O)N[C@@H](CO)C(=O)N[C@H]2CSSC[C@H](NC(=O)[C@H](CCC(=O)O)NC(=O)[C@H](CCCCN)NC(=O)[C@H](CC(=O)O)NC(=O)[C@H](CCSC)NC(=O)[C@H](CC(C)C)NC(=O)[C@H](CO)NC(=O)[C@H](CO)NC2=O)C(=O)N[C@@H](C(C)C)C(=O)N[C@@H](Cc2ccc(O)cc2)C(=O)N[C@@H](Cc2ccccc2)C(=O)N1)C(=O)N[C@H](C(=O)N[C@@H](Cc1c[nH]c2ccccc12)C(=O)O)[C@@H](C)CC (H-CSCSSLMDKECVYFCHLAIIW-OH; disulfide 1-15, 3-11)",0
2,"CSCC[C@@H]1NC(=O)[C@H](CC(C)C)NC(=O)[C@H](CO)NC(=O)[C@H](CO)NC(=O)[C@@H]2CSSC[C@H](NC(=O)[C@H](CCC(=O)O)NC(=O)[C@H](CCCCN)NC(=O)[C@H](CC(=O)O)NC1=O)C(=O)N[C@@H](C(C)C)C(=O)N[C@@H](Cc1ccc(O)cc1)C(=O)N[C@@H](Cc1ccccc1)C(=O)N[C@H](C(=O)N[C@@H](Cc1c[nH]cn1)C(=O)N[C@@H](CC(C)C)C(=O)N[C@@H](CC(=O)O)C(=O)N[C@@H](C)C(=O)N[C@@H](C)C(=O)N[C@@H](Cc1c[nH]c3ccccc13)C(=O)O)CSSC[C@H](N)C(=O)N[C@@H](CO)C(=O)N2 (H-CSCSSLMDKECVYFCHLDAAW-OH; disulfide 1-15, 3-11)",50
3,"CC[C@H](C)[C@H](NC(=O)[C@H](CC(=O)O)NC(=O)[C@H](CC(C)C)NC(=O)[C@H](Cc1c[nH]cn1)NC(=O)[C@@H]1CSSC[C@H](N)C(=O)N[C@@H](CO)C(=O)N[C@H]2CSSC[C@H](NC(=O)[C@H](CCC(=O)O)NC(=O)[C@H](CCCCN)NC(=O)[C@H](CC(=O)O)NC(=O)[C@H](CCSC)NC(=O)[C@H](CC(C)C)NC(=O)[C@H](CO)NC(=O)[C@H](CO)NC2=O)C(=O)N[C@@H](C(C)C)C(=O)N[C@@H](Cc2ccc(O)cc2)C(=O)N[C@@H](Cc2ccccc2)C(=O)N1)C(=O)N[C@@H](C)C(=O)N[C@@H](Cc1c[nH]c2ccccc12)C(=O)O (H-CSCSSLMDKECVYFCHLDIAW-OH; disulfide 1-15, 3-11)",37
4,"CC[C@H](C)[C@H](NC(=O)[C@H](CC(=O)O)NC(=O)[C@H](CC(C)C)NC(=O)[C@H](Cc1c[nH]cn1)NC(=O)[C@@H]1CSSC[C@H](N)C(=O)N[C@@H](CO)C(=O)N[C@H]2CSSC[C@H](NC(=O)[C@H](CCC(=O)O)NC(=O)[C@H](CCCCN)NC(=O)[C@H](CC(=O)O)NC(=O)[C@H](CCSC)NC(=O)[C@H](CC(C)C)NC(=O)[C@H](CO)NC(=O)[C@H](CO)NC2=O)C(=O)N[C@@H](C(C)C)C(=O)N[C@@H](Cc2ccc(O)cc2)C(=O)N[C@@H](Cc2ccccc2)C(=O)N1)C(=O)N[C@H](C(=O)N[C@@H](C)C(=O)O)[C@@H](C)CC (H-CSCSSLMDKECVYFCHLDIIA-OH; disulfide 1-15, 3-11) [listing 2 of 2 here]",0
